What all share (assay type): biochemical
In assay [1] the target is T1, collagenase (MMP-1) (Homo sapiens, UniProt P03956).
T1 sequence (P03956 100-469): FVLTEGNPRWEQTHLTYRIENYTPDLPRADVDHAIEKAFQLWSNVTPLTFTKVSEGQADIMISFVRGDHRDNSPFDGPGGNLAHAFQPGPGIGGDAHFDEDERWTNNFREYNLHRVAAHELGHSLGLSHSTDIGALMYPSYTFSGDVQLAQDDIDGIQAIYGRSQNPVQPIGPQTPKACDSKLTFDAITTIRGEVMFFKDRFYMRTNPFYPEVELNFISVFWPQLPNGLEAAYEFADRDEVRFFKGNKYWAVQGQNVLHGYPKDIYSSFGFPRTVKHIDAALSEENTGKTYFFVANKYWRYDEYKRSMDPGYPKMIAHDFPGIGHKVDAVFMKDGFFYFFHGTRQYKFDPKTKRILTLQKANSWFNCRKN
Briefly: MMP-1 enzyme inhibition assay (coumarin-labelled peptide substrate). The conditions noted are these: for inhibition at 5 µM / inhibition at 0.1 µM: read-out: percentage inhibition MMP1. The protocol: (§1) Compounds of the invention were tested to assess their activities as inhibitors of MMP-1, MMP-2, MMP-9, MMP-14, MMP-12 and TACE. MMP-9 Assay Protocol
(§2) Compounds of the invention were tested for inhibitory activity against 92 kDa gelatinase (MMP-9) in an assay using a coumarin-labeled peptide substrate, (7-methoxycoumarin-4-yl)acetyl-Pro-Leu-Gly-Leu-(3-[2,4-dinitrophenyl]-L-2,3diaminopropionyl)-Ala-Arg-NH2 (McaPLGLDpaAR) (Knight et al, FEBS Lett. 1992; 263-266).
(§3) Stock solutions were made up as follows: Assay Butter: 100 mM Tris-HCl pH 7.6 containing 100 mM NaCl, 10 mM CaCl2, and 0.05% Brij 35.
(§4) Substrate: 0.4 mM McaPLGLDpaAR (from Bachem) (0.437 mg/ml) stock solution in 100% DMSO (stored at −20° C.). Dilute to 8 μM in assay butter.
(§5) Enzyme: Recombinant human 92 kDa gelatinase (MMP-9; APMA (4-aminophenyl mercuric acetate)-activated if necessary) appropriately diluted in assay butter.
(§6) Test Compounds were prepared initially as 10 mM compound solution in 100% DMSO, diluted to 1 mM in 100% DMSO, then serially diluted 3-fold in 100% DMSO across columns 1-10 of a 96-well microtitre plate Assay concentration range, 100 μM (column 1) to 5.1 nM (column 10).
(§7) The assay was performed in a total volume of 100 μL per well in 96-well microtitre plates. Activated enzyme (20 μL) was added to the wells followed by 20 μL of assay butter. Appropriate concentrations of test compounds dissolved in 10 μL of DMSO were then added followed by 50 μL of McaPLGLDpaAR (8 μM, prepared by dilution of DMSO stock in assay butter). For each as say ten concentrations of test compound were examined in duplicate. Control wells lack either enzyme or test compound. The reactions were incubated at 37° C. for 2 hours. The fluorescence at 405 nm was measured immediately with an SLT Fluostar fluorometer (SL T Labinstruments GmbH, Grödig, Austria) using 320 nm excitation, without stopping the reaction.
(§8) The effect of the test compound was determined from the dose response curve generated by the 10 duplicate concentrations of inhibitor. The IC50 (the concentration of compound required to give a 50% decrease in enzyme activity) was obtained by fitting data to the equation, Y=a+((b−a)/(1+(c/X)^d)). (Y=inhibition achieved for a particular dose; X=the dose in nM; a=minimum y or zero % inhibition; b=maximum y or 100% inhibition; c=is the IC50; d=is the slope). The result was rounded to one significant figure.
Compounds of the invention were tested for inhibitory activity against collagenase (MMP-1) in an assay using a coumarin-labelled peptide substrate, (7-methoxycoumarin-4-yl)acetyl-Pro-Leu-Gly-Leu-(3-[2,4-dinitrophenyl]-L-2,3diaminopropionyl)-Ala-Arg-NH2 (Mca PLGLDpaAR) (Knight et al, 1992, above). The protocol for this assay was as described for the MMP-9 assay above.

The target in assay [2] is 92 kDa gelatinase (MMP-9) (Homo sapiens, UniProt P14780). Briefly: MMP-9 enzyme inhibition assay (coumarin-labeled peptide substrate). The conditions noted are these: for IC50: read-out: IC50 MMP9. As for the experimental part: as §1, §2, §3, §4, §5, §6, §7, §8
Chain of 92 kDa gelatinase (MMP-9) (P14780 107-707 limits assumed): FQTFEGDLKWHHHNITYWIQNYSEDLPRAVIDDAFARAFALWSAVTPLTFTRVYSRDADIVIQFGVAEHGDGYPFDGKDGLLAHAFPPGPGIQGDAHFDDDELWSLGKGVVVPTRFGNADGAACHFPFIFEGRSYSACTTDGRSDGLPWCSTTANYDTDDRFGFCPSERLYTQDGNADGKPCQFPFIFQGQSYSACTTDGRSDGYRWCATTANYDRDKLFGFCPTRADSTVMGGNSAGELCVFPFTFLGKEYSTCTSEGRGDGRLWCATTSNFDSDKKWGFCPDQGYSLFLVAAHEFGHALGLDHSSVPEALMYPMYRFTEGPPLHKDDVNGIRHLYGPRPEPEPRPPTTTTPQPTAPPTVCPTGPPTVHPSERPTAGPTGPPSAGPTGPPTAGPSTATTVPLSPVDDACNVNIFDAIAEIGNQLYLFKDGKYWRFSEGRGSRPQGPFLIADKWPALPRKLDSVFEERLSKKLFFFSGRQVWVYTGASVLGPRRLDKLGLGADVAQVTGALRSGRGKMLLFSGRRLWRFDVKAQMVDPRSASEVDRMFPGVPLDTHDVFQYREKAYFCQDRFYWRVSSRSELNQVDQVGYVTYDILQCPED
For assay [3], the target named is metalloelastase (MMP-12) (Homo sapiens, UniProt P39900). As to the kind of experiment: MMP-12 enzyme inhibition assay (coumarin-labelled peptide substrate). The conditions noted are these: read-out: IC50 MMP12. The protocol:
as §1, §2, §3, §4, §5, §6, §7, §8
Compounds of the invention were tested for inhibitory activity against metalloelastase (MMP-12) in an assay using a coumarin-labelled peptide substrate, (7-methoxycoumarin-4-yl)acetyl-Pro-Leu-Gly-Leu-(3-[2,4-dinitrophenyl]-L-2,3-diaminopropionyl)-Ala-Arg-NH2 (McaPLGLDpaAR) (Knight et al, 1992, above). The protocol for this assay was as described for the MMP-9 assay above.

In assay [4] the target is MMP-14 (Homo sapiens, UniProt P50281). As to the kind of experiment: MMP-14 enzyme inhibition assay (coumarin-labelled peptide substrate). The conditions noted are these: for inhibition at 5 µM / inhibition at 0.1 µM: read-out: percentage inhibition MMP14. As for the experimental part:
as §1, §2, §3, §4, §5, §6, §7, §8
Compounds of the invention were tested for inhibitory activity against MMP-14 in an assay using a coumarin-labelled peptide substrate, (7-methoxycoumarin-4-yl)acetyl-Pro-Leu-Gly-Leu-(3-[2,4-dinitrophenyl]-L-2,3diaminopropionyl)-Ala-Arg-NH2 (Mca PLGLD paAR) (Knight et al, 1992, above). The protocol for this assay was as described for the MMP-9 assay above.

Setting [5] is: read-out: percentage inhibition MMP9.

Chain of metalloelastase (MMP-12) (P39900 106-470): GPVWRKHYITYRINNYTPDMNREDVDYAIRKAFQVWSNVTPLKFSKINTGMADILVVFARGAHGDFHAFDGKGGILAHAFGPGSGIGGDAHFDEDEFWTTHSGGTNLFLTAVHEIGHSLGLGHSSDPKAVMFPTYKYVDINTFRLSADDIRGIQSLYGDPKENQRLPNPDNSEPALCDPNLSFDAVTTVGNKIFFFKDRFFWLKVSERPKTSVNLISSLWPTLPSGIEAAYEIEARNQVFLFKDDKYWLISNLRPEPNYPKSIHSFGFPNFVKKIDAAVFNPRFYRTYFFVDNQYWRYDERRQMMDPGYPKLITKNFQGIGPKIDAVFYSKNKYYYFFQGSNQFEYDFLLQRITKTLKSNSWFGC

Turning to `O=CN(O)C(CS(=O)(=O)N1CCc2ccc(F)cc2C1)c1ccoc1` (stereo not drawn) [Example 52, N-[2-[(7-fluoro-3,4-dihydroisoquinolin-2(1H)-yl)sulfonyl]-1-(3-furyl)ethyl]-N-hydroxyformamide], the inhibition (commonly the change of the read-out against control, counted positive when it falls) at 5 µM in assay [1] amounted to 14%; in assay [2] (setting [5]), 10%; in assay [4] it was 49%. Besides, in assay [3], the IC50 (commonly the concentration needed to halve the response being measured) came to 46 nM.

As to `CCC#CCC(C)(C)C(CS(=O)(=O)N1CCc2cc(C(F)(F)F)ccc2C1)N(O)C=O` (stereo not drawn) [Example 30, N-[2,2-dimethyl-1-({[6-(trifluoromethyl)-3,4-dihydro-isoquinolin-2(1H)-yl]sulfonyl}methyl)hept-4-yn-1-yl]-N-hydroxyformamide], the inhibition at 5 µM came to 8% in assay [1], 3% in assay [2] (setting [5]) and 38% in assay [4]. The half-maximal inhibitory concentration (IC50) in assay [3] was found to be 32 nM.

With `O=CN(O)C(CS(=O)(=O)N1CCc2ccccc2C1)C1CC1` (stereo not drawn) [Example 4, N-[1-cyclopropyl-2-(3,4-dihydroisoquinolin-2(1H)-ylsulfonyl)ethyl]-N-hydroxyformamide], the inhibition at 5 µM turned out to be 19% in assay [1] and 29% in assay [4]. The IC50 was above 5000 nM in assay [2] and 65 nM in assay [3].

`CC(C)C(CS(=O)(=O)N1CCc2ccc(-c3ccc(F)cc3)cc2C1)N(O)C=O` (stereo not drawn) [Example 50, N-[1-({[7-(4-fluorophenyl)-3,4-dihydroisoquinolin-2(1H)-yl]sulfonyl}methyl)-2-methylpropyl]-N-hydroxyformamide]: the inhibition at 5 µM in assay [1] stood at 0%; in assay [2] (setting [5]), 72%; in assay [4], 83%. Further, the inhibition at 0.1 µM amounted to 4% in assay [2] (@ 0.1 μM, read-out: percentage inhibition MMP9) and 13% in assay [4]. Also, in assay [3], the half-maximal inhibitory concentration (IC50) is 3.5 nM.

As to `CC1(C)OC[C@H](C(CS(=O)(=O)N2CCc3ccc(C(F)(F)F)cc3C2)N(O)C=O)O1` (stereo partly drawn) [Example 28, N-(1-[(4S)-2,2-dimethyl-1,3-dioxolan-4-yl]-2-{[7-(trifluoro-methyl)-3,4-dihydroisoquinolin-2(1H)-yl]sulfonyl}ethyl)-N-hydroxyformamide], the inhibition at 5 µM in assay [1] is 18%; in assay [2] (setting [5]), 21%; in assay [4], 62%. Also, the IC50 in assay [3] worked out at 3.9 nM.

Turning to `O=CN(O)C(CCc1ccccc1)CS(=O)(=O)N1CCc2ccccc2C1` (stereo not drawn) [Example 1, N-{1-[(3,4-dihydroisoquinolin-2(1H)-ylsulfonyl)methyl]-3-phenylpropyl}-N-hydroxyformamide], the IC50 was above 5000 nM in assay [1] (read-out: IC50 MMP1), above 5000 nM in assay [2], 27 nM in assay [3] and above 5000 nM in assay [4] (read-out: IC50 MMP14).

In the case of `O=CN(O)C1(CS(=O)(=O)N2CCc3ccc(Cl)cc3C2)CCCC1` [Example 62, N-(1-{[(7-chloro-3,4-dihydroisoquinolin-2(1H)-yl)-sulfonyl]methyl}cyclopentyl)-N-hydroxyformamide], the inhibition at 5 µM was determined as 52% in assay [1], 1% in assay [2] (setting [5]) and 75% in assay [4]. Also, in assay [3], the concentration for half-maximal inhibition (IC50) worked out at 36 nM.

`COc1cc2c(cc1OC)CN(S(=O)(=O)CC([C@H]1COC(C)(C)O1)N(O)C=O)CC2` (stereo partly drawn) [Example 14, N-{2-[(6,7-dimethoxy-3,4-dihydroisoquinolin-2(1H)-yl)sulfonyl]-1-[(4S)-2,2-dimethyl-1,3-dioxolan-4-yl]ethyl}-N-hydroxyformamide]: the inhibition at 5 µM in assay [1] and in assay [4] was 0% in each case. For the same compound, the values for the IC50 in assay [2] and in assay [3] were above 5000 nM and 41 nM, respectively.

Regarding `O=CN(O)C(CCc1cccnc1)CS(=O)(=O)N1CCc2ccc(Cl)cc2C1` (stereo not drawn) [Example 86, N-(1-{[(7-chloro-3,4-dihydroisoquinolin-2(1H)-yl)sulfonyl]methyl}-3-pyridin-3-ylpropyl)-N-hydroxyformamide], the inhibition at 5 µM was 49% in assay [1], 52% in assay [2] (setting [5]) and 100% in assay [4]. Also, in assay [3], the IC50 turned out to be 9.8 nM. In assay [4], the inhibition at 0.1 µM came to 12%.

As for `O=CN(O)C(CS(=O)(=O)N1CCc2cc(C(F)(F)F)ccc2C1)C1CCCC1` (stereo not drawn) [Example 25, N-(1-cyclopentyl-2-{[6-(trifluoromethyl)-3,4-dihydro-isoquinolin-2(1H)-yl]sulfonyl}ethyl)-N-hydroxyformamide], the results for the inhibition at 5 µM in assay [1] and in assay [4] were 37% and 73%, respectively. The IC50 in assay [2] was above 5000 nM; in assay [3], 6 nM. The inhibition at 0.1 µM in assay [4] came out at 0%.

Take `O=CN(O)C(CCO)CS(=O)(=O)N1CCc2ccc(Cl)cc2C1` (stereo not drawn) [Example 48, N-(1-{[(7-chloro-3,4-dihydroisoquinolin-2(1H)-yl)sulfonyl]-methyl}-3-hydroxypropyl)-N-hydroxyformamide]: the inhibition at 5 µM in assay [1] came out at 26%; in assay [2] (setting [5]) it was 8%; in assay [4], 41%. In assay [3], the IC50 turned out to be 46 nM.

For the compound `O=CN(O)[C@H](CS(=O)(=O)N1Cc2ccc(F)cc2C1)[C@H]1CCCO1` [Example 29, N-{(1S)-2-[(5-fluoro-1,3-dihydro-2H-isoindol-2-yl)-sulfonyl]-1-[(2R)-tetrahydrofuran-2-yl]ethyl}-N-hydroxyformamide], the inhibition at 0.1 µM in assay [1] turned out to be 22%. Also, the values for the inhibition at 5 µM in assay [1], in assay [2] (setting [5]) and in assay [4] were 94%, 40% and 78%, respectively. Further, the IC50 in assay [3] was found to be 14 nM.

Turning to `CCCCCC(CS(=O)(=O)N1CCc2ccccc2C1)N(O)C=O` (stereo not drawn) [Example 3, N-{1-[(3,4-dihydroisoquinolin-2(1H)-ylsulfonyl)methyl]hexyl}-N-hydroxyformamide], the inhibition at 5 µM came out at 31% in assay [1] and 67% in assay [4]. Also, the IC50 in assay [2] was above 5000 nM; in assay [3] it was 14 nM.

On to `O=CN(O)C(COCc1ccccc1)CS(=O)(=O)N1CCc2ccc(Cl)cc2C1` (stereo not drawn) [Example 58, N-(2-(benzyloxy)-1-{[(7-chloro-3,4-dihydroisoquinolin-2(1H)-yl)sulfonyl]methyl}ethyl)-N-hydroxyformamide], for which the results for the inhibition at 0.1 µM in assay [1] and in assay [4] were 4% and 11%, respectively. Besides, the inhibition at 5 µM in assay [1] amounted to 68%; in assay [2] (setting [5]) it was 41%; in assay [4], 79%. In addition, the IC50 in assay [3] is 4.5 nM.

The record behind these values is patent US7879876B2, “Sulfonamide derivatives and use thereof for the modulation of metalloproteinases” (Merck Serono SA, priority 2005, dated 2011).
